Experimental data reported in article PMC4932917, “Structural basis for acyl-group discrimination by human Gcn5L2” (Acta Crystallographica. Section D, Structural Biology, 2016).

Molecular target: T1, human Gcn5L2 (hsGcn5L2) (Homo sapiens, UniProt Q92830)
T1 construct: gene KAT2A; catalytic domain, amino acids 497–662
Experiment: X-ray crystal structure ([…] Å); Ki from enzyme-coupled acetylation assay on purified catalytic domain
Format: biochemical

T1 sequence (Q92830 497-662): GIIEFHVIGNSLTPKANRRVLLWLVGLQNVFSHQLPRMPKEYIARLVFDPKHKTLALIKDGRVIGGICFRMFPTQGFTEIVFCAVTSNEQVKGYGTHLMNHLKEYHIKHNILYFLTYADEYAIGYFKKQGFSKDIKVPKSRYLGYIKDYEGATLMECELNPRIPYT

CCCC(=O)SCCNC(=O)CCNC(=O)[C@H](O)C(C)(C)COP(=O)(O)OP(=O)(O)OC[C@H]1O[C@@H](n2cnc3c(N)ncnc32)[C@H](O)[C@@H]1OP(=O)(O)O [butyryl-CoA]
Ki: 5.6 ± 0.7 µM
